Measurements reported in patent publication US9499486B2, “Kinase inhibitor” (RESPIVERT LIMITED, priority 2014, dated 2016).
Like-named read-outs stand apart in the source and are kept apart here.

How the values were obtained:
Jurkat cells = assay: Cell cytotoxicity assay (assay r); format: cell-based, human
Method: 1×10^5 Jurkat cells (immortalised human T lymphocytes) are added to the appropriate number of wells of a 96 well plate in 100 μL of media (RPMI supplemented with 10% foetal bovine serum). 1 μL of DMSO control (final concentration 1.0% v/v) or test compound (final concentration 20, 5 or 1 μg/mL) is added to the wells and incubated at 37° C., 5% CO2. After 24 hours, the plate is centrifuged at 1200 rpm for 3 minutes and the supernatant discarded. Cells are then resuspended in 150 μL (final concentration 7.5 μg/mL) of propidium iodide (PI) in PBS and incubated at 37° C., 5% CO2 for 15 minutes. After 15 minutes, cells are analysed by flow cytometry (BD accuri) using the FL3 window. The % viability is calculated as the % of cells that are PI negative in the test wells normalised to the DMSO control.

p38 MAPKα = p38 MAPKα (Homo sapiens (Human), UniProt Q16539); assay: p38 MAPKα enzyme inhibition (Method 2), Z-LYTE FRET; format: biochemical
p38 MAPKα, sequence (Q16539 whole entry, looked up): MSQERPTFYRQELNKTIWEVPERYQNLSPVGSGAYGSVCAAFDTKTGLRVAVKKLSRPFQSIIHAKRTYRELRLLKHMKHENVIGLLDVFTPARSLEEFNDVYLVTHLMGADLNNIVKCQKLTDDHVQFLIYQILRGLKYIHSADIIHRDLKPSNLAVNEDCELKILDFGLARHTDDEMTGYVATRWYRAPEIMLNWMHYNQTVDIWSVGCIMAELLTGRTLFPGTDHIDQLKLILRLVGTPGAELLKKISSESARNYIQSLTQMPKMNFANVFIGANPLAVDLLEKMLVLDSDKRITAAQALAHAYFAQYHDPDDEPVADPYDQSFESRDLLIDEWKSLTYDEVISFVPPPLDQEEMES
Method: The enzyme inhibitory activities of the compound disclosed herein are determined by FRET using synthetic peptides labelled with both donor and acceptor fluorophores (Z-LYTE, Invitrogen Ltd., Paisley, UK).
The inhibitory activities of test compounds against the p38 MAPKα isoform (MAPK14: Invitrogen) are evaluated indirectly by determining the level of activation/phosphorylation of the down-stream molecule, MAPKAP-K2. The p38 MAPKα protein (80 ng/mL, 2.5 μL) is mixed with the test compound (2.5 μL of either 4 μg/mL, 0.4 μg/mL, 0.04 μg/mL or 0.004 μg/mL) for 2 hr at RT. […] The mixture is incubated for 1 hr at RT. Development reagent (protease, 5 μL) is added for 1 hr prior to detection in a fluorescence microplate reader (Varioskan® Flash, ThermoFisher Scientific). […]
In all cases, the site-specific protease cleaves non-phosphorylated peptide only and eliminates the FRET signal. Phosphorylation levels of each reaction are calculated using the ratio of coumarin emission (donor) over fluorescein emission (acceptor), for which high ratios indicate high phosphorylation and low ratios indicate low phosphorylation levels.

[1] = test system: eyes of albino New Zealand White rabbits

COc1cc(Nc2cc(Oc3ccc(NC(=O)Nc4cc(C(C)(C)C)cc(NS(C)(=O)=O)c4OC)c4ccccc34)ccn2)ccc1C(=O)O [Example 1, 4-((4-((4-(3-(5-(tert-Butyl)-2-methoxy-3-(methylsulfonamido)phenyl)ureido)naphthalen-1-yl)oxy)pyridin-2-yl)amino)-2-methoxybenzoic acid]
% Viability at 1 μg/mL (Jurkat cells; 1 μg/mL, 24 hours): 94.6%
% Viability at 5 μg/mL (Jurkat cells; 5 μg/mL, 24 hours): 96.1%
% Viability at 20 μg/mL (Jurkat cells; 20 μg/mL, 24 hours): 95.8%
cytotoxicity compared with Reference Compound (Jurkat cells; assay (r)): substantially less cytotoxic than the Reference Compound
IC50 (p38 MAPKα): 11 nM
ocular reactions compared with vehicle controls ([1]; Phase 1, one treatment day, 0.1 and 1.0 mg/mL): no differences in the frequency, severity and incidence
local tolerability of the formulations ([1]; Phase 1, single dosing day, 0.1 and 1.0 mg/mL): acceptable
local tolerability of the formulations ([1]; Phase 2, three consecutive treatment days, 0.1 and 1.0 mg/mL): acceptable without any aggravation
effects on body weight and food consumption ([1]; rabbits, ocular 0.1 and 1.0 mg/mL, four daily instillations): no effects on body weight, nor on food consumption
